For one assay, the system named is WT L. monocytogenes. The assay is described as follows: Growth curves in BHI with added cyclic dinucleotide, WT bacteria. The following applies: for effect on growth in the absence of vancomycin stress: BHI, dinucleotide 3 μg ml^−1; for effect on growth in the presence of vancomycin: vancomycin 1 μg ml^−1, dinucleotide 3 μg ml^−1. It counts as cell-based, Listeria monocytogenes. As to the method:
(§1) Overnight cultures were adjusted to 0.03 O.D.600 in 20 ml fresh BHI broth, supplemented when indicated with 0.25 mM IPTG, 0.08 μg ml^−1 penicillin G, 1 μg ml^−1 vancomycin or 3 μg ml^−1 c-di-AMP. For bacterial RNA extraction, bacteria were grown at 37° C. to O.D.600 0.4, then supplemented with 3 μg ml^−1 lincomycin, 50 μM rhodamine 6 G (R6G), 1 μg ml^−1 vancomycin, 0.08 μg ml^−1 penicillin G for 2 h; or centrifuged and resuspended in minimal media pH 5 (lactic acid), minimal media with 10 mM H2O2, or defined minimal media pH 5 with 10 mM H2O2 for 30 mM For microscopy bacteria were grown similarly and supplemented with 1 μg ml^−1 vancomycin for 2 h. Growth curves in the presence of drugs were performed in a Synergy HT BIOTEK® plate reader at 37° C. with continuous shaking following O.D.600 every 15 min for 24 h. Of note, bacterial growth in the plate reader is different than in flasks in respect to the O.D. levels that are measured. In each experiment, growth conditions are indicated.

A further assay deals with ΔmdrMTAC mutant. Description: Growth curves in BHI with added cyclic dinucleotide, ΔmdrMTAC mutant. It counts as cell-based, Listeria monocytogenes. Particulars: for effect on growth in the absence of vancomycin stress: BHI, dinucleotide 3 μg ml^−1; for effect on growth in the presence of vancomycin: vancomycin 1 μg ml^−1, dinucleotide 3 μg ml^−1. The method, then:
as §1

In assay [1] the test system is WT bacteria. Description: Minimal inhibitory concentration for WT bacteria. It counts as cell-based. The following applies: Listeria monocytogenes. As to the method:
as §1

The next assay deals with ΔmdrMTAC. Description: Minimal inhibitory concentration for ΔmdrMTAC. It counts as cell-based. Particulars: Listeria monocytogenes, read-out: minimal inhibitory concentration.
The subject of assay [2] is dacA gene transcription in WT bacteria. Description: RT-qPCR of dacA transcription upon vancomycin treatment, WT bacteria. It counts as cell-based, Listeria monocytogenes. The method, then:
as §1, with “[…];” for “1 μg ml^−1 vancomycin, 0.08 μg ml^−1 penicillin G for 2 h;”
RNA was purified from bacteria in mid-log growth in BHI or from infected cells using standard phenol-chloroform extraction methods. RNA from intracellularly grown bacteria was amplified using MESSAGEAMP™ II (AMBION™) bacterial RNA amplification kit according to the manufacturer's instructions. RNA of infected macrophages was extracted using TRIZOL® reagent according to standard protocols. […]
In general terms: In qPCR the cycle at which signal appears reflects the starting amount.

The subject of assay [3] is WT bacteria. The assay is described as follows: TEM sections, cell wall thickness under vancomycin treatment, WT bacteria. It counts as cell-based, Listeria monocytogenes. The following applies: vancomycin 1 μg ml^−1 for 2 h. The method, then: as §1
Bacteria were grown as described above with and without vancomycin treatment. For negative staining, PBS washed bacteria were adsorbed on formvar/carbon coated grids and stained with 2% aqueous uranyl acetate. For TEM sections, a bacterial pellet from 20 ml of culture was fixed in 2.5% glutaraldehyde in PBS at 4° C. for 20 h, washed three times with PBS and post-fixed in 1% OsO4 in PBS at 4° C. for 2 h. […]

The structures appear in SMILES notation. ≈ marks a conversion by molar mass, not a printed value.

`Nc1ncnc2c1ncn2[C@@H]1O[C@@H]2COP(=O)(O)O[C@H]3[C@@H](O)[C@H](n4cnc5c(N)ncnc54)O[C@@H]3COP(=O)(O)O[C@H]2[C@H]1O` [c-di-AMP, cyclic-di-adenosine monophosphate]: in the assay on WT L. monocytogenes, the “effect on growth in the absence of vancomycin stress” value (shortened to “effect on growth in the absence”) is reported as “no effect” and the “effect on growth in the presence of vancomycin” value (“effect on growth in the presence” for short) is recorded as “shorter lag phase”. Besides, in the assay on ΔmdrMTAC mutant, the “effect on growth in the absence” value is given as “no effect” and the “effect on growth in the presence” value is on record as “shorter lag phase”.

As to `Nc1nc2c(ncn2[C@@H]2O[C@@H]3COP(=O)(O)O[C@H]4[C@@H](O)[C@H](n5cnc6c(=O)[nH]c(N)nc65)O[C@@H]4COP(=O)(O)O[C@H]3[C@H]2O)c(=O)[nH]1` [c-di-GMP], in the assay on WT L. monocytogenes, the “effect on growth in the absence” value was “no effect” and the “effect on growth in the presence” value is reported as “no effect”. In the assay with ΔmdrMTAC mutant, the “effect on growth in the absence” value is reported as “no effect” and the “effect on growth in the presence” value was “no effect”.

Take `CC1(C)S[C@@H]2[C@H](NC(=O)Cc3ccccc3)C(=O)N2[C@H]1C(=O)O` [penicillin, penicillin G]: the MIC amounted to 0.15 µg/mL with WT bacteria [1] and 0.08 µg/mL (≈ 0.239 µM) with ΔmdrMTAC.

For `CN[C@H](CC(C)C)C(=O)N[C@H]1C(=O)N[C@@H](CC(N)=O)C(=O)N[C@H]2C(=O)N[C@H]3C(=O)N[C@H](C(=O)N[C@H](C(=O)O)c4cc(O)cc(O)c4-c4cc3ccc4O)[C@H](O)c3ccc(c(Cl)c3)Oc3cc2cc(c3O[C@@H]2O[C@H](CO)[C@@H](O)[C@H](O)[C@H]2O[C@H]2C[C@](C)(N)[C@H](O)[C@H](C)O2)Oc2ccc(cc2Cl)[C@H]1O` [vancomycin], the “dacA transcription level in comparison to non-treated bacteria” value in assay [2] (sub-lethal vancomycin 1 μg ml^−1) is recorded as 1.5 fold; in assay [2] (vancomycin 20 μg ml^−1 for 10 minutes), 4.5 fold. Moreover, the MIC is 2 µg/mL in the assay on WT bacteria [1] and 1.5 µg/mL (≈ 1.04 µM) in the assay with ΔmdrMTAC. Besides, the “cell wall thickness, average” value with WT bacteria [3] is listed as 35 nm.

For the origin of these results see patent US9976149B2, “Modified listeria bacteria and uses thereof” (priority 2014, dated 2018).
